For 43 compounds, ED50 results are on record in US4861785A (priority 1985, dated 1989).

SMILES strings stand for the structures. Where a name gives a salt, the structure may show the parent alone.

This assay relates to KCN-induced lethality. Put plainly: KCN Test in Rats (protection from KCN induced lethality). The class given is in vivo. Conditions: Rattus norvegicus, sc; male Wistar rats, subcutaneous, one hour before KCN 5 mg/kg i.v.; survival after 2 minutes; read-out: ED50-values (protecting 50% of the tested animals against KCN-induced lethality).
For the compound `C[C@@H]1CN(CCCCOc2ccccc2)CC[C@@H]1N(C)c1nc2ccccc2s1` (relative stereo) [Compound 75], the ED50 stood at 10 mg/kg.
Turning to `CN(c1nc2ccccc2o1)C1CCN(CC(O)C2COc3ccccc3O2)CC1` (single isomer, unassigned) [Compound 413, (A)-4-[(2-benzoxazolyl)methylamino]-α-(2,3-dihydro-1,4-benzodioxin-2-yl)-1-piperidineethanol], the ED50 was 5 mg/kg.
Then `CN(c1nc2ccccc2s1)C1CCN(CC(O)C2COc3ccccc3O2)CC1` (single isomer, unassigned) [Compound 415, (A)-4-[(2-benzothiazolyl)methylamino]-α-(2,3-dihydro-1,4-benzodioxin-2-yl)-1-piperidineethanol], with 10 mg/kg; and `CN(c1nc2ccccc2s1)C1CCN(CCCCOc2cccc(Cl)c2)CC1.O=C(O)/C=C\C(=O)O` [Compound 1, N-[1-[4-(3-chlorophenoxy)butyl]-4-piperidinyl]-N-methyl-2-benzothiazolamine (Z)-2-butenedioate (1:1)], with 5 mg/kg; and `CN(c1nc2ccccc2s1)C1CCN(CCCOc2cccc(F)c2)CC1` [Compound 9], with 2.5 mg/kg.
As for `CN(c1nc2ccccc2s1)C1CCN(CCCCOc2ccccc2)CC1` [Compound 10], the ED50 was determined as 5 mg/kg.
Consider `CN(c1nc2ccccc2s1)C1CCN(CCCCOc2ccc(F)cc2)CC1` [Compound 11], for which the ED50 stood at 1.25 mg/kg.
On to `CN(c1nc2ccccc2o1)C1CCN(CCCCOc2ccc(Cl)cc2)CC1` [Compound 15], for which the ED50 was 0.63 mg/kg.
Turning to `CN(c1nc2ccccc2s1)C1CCN(CCCOc2ccccc2F)CC1` [Compound 18], the median effective dose (ED50) came out at 5 mg/kg.
Turning to `COc1ccc(OCCCN2CCC(N(C)c3nc4ccccc4s3)CC2)cc1` [Compound 24], the ED50 is 5 mg/kg.
With `COc1ccc(OCCCCN2CCC(N(C)c3nc4ccccc4s3)CC2)cc1` [Compound 31], the ED50 was determined as 5 mg/kg.
Then `CN(c1nc2ccccc2s1)C1CCN(CCCCCOc2ccc(F)cc2)CC1` [Compound 32], with 5 mg/kg.
`CN(c1nc2ccccc2s1)C1CCN(CCCCOc2ccc(Br)cc2)CC1` [Compound 42]: the ED50 was found to be 2.5 mg/kg.
Turning to `Cc1cccc(OCCCN2CCC(N(C)c3nc4ccccc4o3)CC2)c1` [Compound 48], the ED50 turned out to be 1.25 mg/kg.
Then `COc1ccccc1OCCCCCN1CCC(N(C)c2nc3ccccc3s2)CC1` [Compound 50], with 2.5 mg/kg; and `CCCCN1CCC(N(C)c2nc3ccccc3o2)CC1` [Compound 103], with 5 mg/kg.
For `C(=Cc1ccccc1)CN1CCC(Nc2nc3ccccc3o2)CC1` [Compound 107] the value was 2.5 mg/kg; for `CN(c1nc2ccccc2s1)C1CCN(CCCCCc2ccccc2)CC1` [Compound 108], 5 mg/kg.
Then `CN(c1nc2ccccc2s1)C1CCN(CCCCOc2ccc(F)cc2)C1` (stereo not shown) [Compound 118, N-[1-[4-(4-fluorophenoxy)butyl]-3-pyrrolidinyl]-N-methyl-2-benzothiazolamine dihydrochloride.monohydrate], with 5 mg/kg; and `Cc1cccc(OCCCN2CCC(N(C)c3nc4ccccc4s3)C2)c1.O=C(O)C(=O)O` (stereo not shown) [Compound 120, N-methyl-N-[1-[3-(3-methylphenoxy)propyl]-3-pyrrolidinyl]-2-benzothiazolamine ethanedioate(1:1)], with 2.5 mg/kg.
On to `CN(c1nc2ccccc2s1)C1CCN(CCCOc2cccc(F)c2)C1.O=C(O)C(=O)O` (stereo not shown) [Compound 121, N-[1-[3-(3-fluorophenoxy)propyl]-3-pyrrolidinyl]-N-methyl-2-benzothiazolamine ethanedioate(1:1)], for which the ED50 is 2.5 mg/kg.
`CCN(c1nc2ccccc2s1)C1CCN(CCCOc2ccc(C)cc2)CC1` [Compound 123, N-ethyl-N-[1-[3-(4-methylphenoxy)propyl]-4-piperidinyl]-2-benzothiazolamine]: the ED50 was 5 mg/kg.
For the compound `CN(c1nc2ccccc2s1)C1CCN(CC=Cc2ccccc2)CC1` [Compound 133], the ED50 is 5 mg/kg.
As to `CN(c1nc2ccccc2s1)C1CCN(CCCOc2ccc(F)cc2)CC1` [Compound 146], the ED50 came to 5 mg/kg.
As for `CN(c1nc2ccccc2s1)C1CCN(CCCOc2ccc3ccccc3c2)CC1` [Compound 148], the ED50 is 5 mg/kg.
`CN(c1nc2ccccc2s1)C1CCN(CCCOc2ccc([N+](=O)[O-])cc2)CC1` [Compound 151]: the ED50 turned out to be 5 mg/kg.
For `CN(c1nc2ccccc2s1)C1CCN(CCCCCOc2cccc(Cl)c2)CC1` [Compound 191] the value was 2.5 mg/kg.
With `CN(c1nc2ccccc2o1)C1CCN(CCCOc2cccc(F)c2)CC1` [Compound 195], the 50% effective dose (ED50) was 1.25 mg/kg.
Take `CN(c1nc2ccccc2o1)C1CCN(C2CCCCC2)CC1` [Compound 309]: the ED50 was found to be 5 mg/kg.
Take `CN(c1nc2ccccc2s1)C1CCN(CC(O)COc2ccc(F)cc2)CC1` (stereo not drawn) [Compound 320, 4-[(2-benzothiazolyl)methylamino]-α-[(4-fluorophenoxy)methyl]-1-piperidineethanol monohydrochloride]: the ED50 was found to be 1.8 mg/kg.
Then `CN(c1nc2ccccc2o1)C1CCN(CC(O)COc2ccccc2)CC1` (stereo not shown) [Compound 322], with 5 mg/kg; and `CN(c1nc2ccccc2o1)C1CCN(CC(O)COc2ccc(F)cc2)CC1` (stereo not shown) [Compound 323], with 1.25 mg/kg; and `CN(c1nc2ccccc2o1)C1CCN(CC(O)COc2ccc(Cl)cc2)CC1` (stereo not shown) [Compound 324], with 2.5 mg/kg.
With `CCN(c1nc2ccccc2s1)C1CCN(CC(O)COc2ccc(Cl)cc2)CC1` (stereo not shown) [Compound 357], the ED50 came out at 0.63 mg/kg.
For `CN(c1nc2ccccc2s1)C1CCN(CC(O)COc2ccc(F)cc2)C1` (stereo not drawn) [Compound 405, 3-[(2-benzothiazolyl)methylamino]-α-[(4-fluorophenoxy)methyl]-1-pyrrolidineethanol 4-methylbenzenesulfonate(1:2)] the value was 10 mg/kg.
Consider `CN(c1nc2ccccc2s1)C1CCN(C[C@@H](O)COc2ccc(F)cc2)CC1` [Compound 410, (+)-(R)-4-[(2-benzothiazolyl)methylamino]-α-[(4-fluorophenoxy)methyl]-1-piperidineethanol dihydrochloride], for which the median effective dose (ED50) was determined as 5 mg/kg.
Take `CN(c1nc2ccccc2s1)C1CCN(C[C@H](O)COc2ccc(F)cc2)CC1` [Compound 411, (-)-(S)-4-[(2-benzothiazolyl)methylamino]-α-[(4-fluorophenoxy)methyl]-1-piperidineethanol dihydrochloride]: the ED50 is 5 mg/kg.
Turning to `CN(c1nc2ccccc2s1)C1CCN(CC(O)C2CCc3ccccc3O2)CC1` (stereo not drawn) [Compound 438, (A^-)-4-[(2-benzothiazolyl)methylamino]-α-(3,4-dihydro-2H-1-benzopyran-2-yl)-1-piperidineethanol], the ED50 is 10 mg/kg.
For `CN(c1nc2ccccc2s1)C1CCN(CC(O)CSc2ccccc2)CC1` (stereo not drawn) [Compound 440, 4-[(2-benzothiazolyl)methylamino]-α-[(phenylthio)methyl]-1-piperidineethanol (Z)-2-butenedioate(1:1)] the value was 10 mg/kg; for `CN(c1nc2ccccc2s1)C1CCN(CC(O)CSc2ccc(F)cc2)CC1` (stereo not drawn) [Compound 442, 4-[(2-benzothiazolyl)methylamino]-α-[[(4-fluorophenyl)thio]methyl]-1-piperdineethanol (Z)-2-butenedioate(1:1)], 2.5 mg/kg; for `CN(c1nc2ccccc2s1)C1CCN(CC(O)CSc2ccc(Cl)cc2)CC1` (stereo not drawn) [Compound 443, 4-[(2-benzothiazolyl)methylamino]-α-[[(4-chlorophenyl)thio]methyl]-1-piperidineethanol (Z)-2-butenedioate(1:1)], 10 mg/kg.
On to `CN(c1nc2ccccc2o1)C1CCN(CC(O)CSc2ccccc2)CC1` (stereo not drawn) [Compound 446, 4-[(2-benzoxazolyl)methylamino]-α-[(phenylthio)methyl]-1-piperidineethanol (E)-2-butenedioate(2:1)], for which the ED50 came out at 10 mg/kg.
As for `CN(c1nc2ccccc2o1)C1CCN(CCc2ccccn2)CC1` [Compound 452, N-methyl-N-[1-[2-(2-pyridinyl)ethyl]-4-piperidinyl]-2-benzoxazolamine], the 50% effective dose (ED50) came to 5 mg/kg.
